Data: patent US7977387B2, “Aminobenzophenone compounds” (Leo Pharma A/S, priority 2003, dated 2011)

Experiments:
[1] = system: TNF-α; test: Inhibition of TNF-α secretion in LPS stimulated peripheral blood mononuclear cells; assay type: cell-based; settings: PBMC; LPS stimulated human peripheral blood mononuclear cells, 18 hours, ELISA; read-out: The median inhibition concentration (IC50, nM) of TNF-α
Method in brief: (§1)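 Human PBMCs (5×10^5 cells/ml, RPMI 1640 + 2% FCS) pre-treated with compound 30 min, then stimulated with LPS ([…]) for 18 h. Secreted IL-1β and TNF-α quantified by ELISA; IC50 values calculated.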

[2] = system: IL-1β; test: Inhibition of IL-1β secretion in LPS stimulated peripheral blood mononuclear cells; assay type: cell-based; settings: PBMC; LPS stimulated human peripheral blood mononuclear cells, 18 hours, ELISA; read-out: The median inhibition concentration (IC50, nM) of IL-1β
Method in brief: as §1

[3] = molecular target: T1, p38α MAP kinase (Homo sapiens, UniProt Q16539); test: p38α MAP kinase assay (immunoprecipitated FLAG-p38α, GST-ATF-2 substrate); assay type: biochemical; settings: FLAG-p38α from COS-1 cells, 50 μM ATP; read-out: p38 MAP kinase IC50
T1 construct: made in house; host or cells: COS-1 cells (transient co-transfection; anti-FLAG M2 immunoprecipitation)
Description: COS-1 cells (derived from African green monkey kidney fibroblast-like cell containing wild-type T antigen under control of the SV40 promotor) were obtained from ATCC (ATCC no. CRL-1650) and grown in growth medium (DMEM without phenoired, 10% FCS, 2 mM L-glutamine, 100 U penicillin and 100 μg streptomycin/ml) at 37° C. with 5% CO2. The cells were passaged twice a week by trypsination (0.25% trypsin, 1 mM EDTA in PBS) and were split 1:10. The medium was changed every second or third day. The cell line was regularly tested with the Mycoplasma PCR Primer Set (Stratagene) and found to be free of Mycoplasma. Tissue culture media, FCS, L-glutamine and penicillin and streptomycin are from Bribco BRL, Gaithersburg, Md., USA.
Transient Expression of COS-1 Cells
On day one COS-1 cells were seeded in 143 cm^2 petri dish with a density of 2×10^4 celler/cm^2 in growth medium. At day 2 the cells were co-transfected with 5 μg (total) of experimental plasmid DNA, expressing the FLAG-p38α and FLAG-MKK6(EE). The plasmids were introduced into the COS-1 cells in serum-free medium using DOTAP™ (Boehringer-Mannheim, Mannheim, Germany). Plasmid DNA was prepared and purified using the QIAGEN EndoToxin-free Maxiprep-500 kit (Hilden, Germany). Briefly, DNA and DOTAP™ were mixed for exactly 15 min. at 37° C. In the CO2 incubator. […]

[4] = system: LPS induced TNF-α response; test: In vivo screening model of LPS induced TNF-α response in mice; settings: Mus musculus, mice (C3H/HeN), dosed 1 hour prior to LPS, plasma TNF-α 80-90 minutes after LPS, vs LPS treated control group, read-out: In vivo inhibition of LPS induced TNF-α production (in %)
Method in brief: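 Female C3H/HeN mice (~8 weeks) dosed with compound in suspension vehicle at 10 mg/kg 1 h before ip LPS (E. coli 055:B5, 1.0 mg/kg); plasma drawn 80-90 min post-LPS. TNF-α measured by sandwich ELISA (OD 450 nm minus 620 nm). Reported as % inhibition versus LPS-treated controls, Mann-Whitney test.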

T1 sequence (Q16539 whole entry): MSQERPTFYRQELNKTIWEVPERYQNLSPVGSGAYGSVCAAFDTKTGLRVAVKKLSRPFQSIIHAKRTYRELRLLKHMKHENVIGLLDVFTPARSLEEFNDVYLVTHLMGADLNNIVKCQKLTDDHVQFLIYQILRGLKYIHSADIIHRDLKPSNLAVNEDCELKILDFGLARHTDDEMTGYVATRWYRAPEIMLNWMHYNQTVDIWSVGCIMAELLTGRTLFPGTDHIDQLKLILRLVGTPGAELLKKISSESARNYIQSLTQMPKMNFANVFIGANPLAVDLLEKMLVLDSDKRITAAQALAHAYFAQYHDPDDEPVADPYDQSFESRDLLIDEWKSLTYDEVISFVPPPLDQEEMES

Cc1ccc(C(=O)NCCO)cc1C(=O)c1ccc(Nc2ccccc2N)cc1Cl [Compound 112, 3-[4-(2-Aminophenylamino)-2-chlorobenzoyl]-N-(2-hydroxyethyl)-4-methylbenzamide]
IC50 [1]: 0.6 nM
IC50 [2]: 4 nM
IC50 [3]: 2 nM
inhibition at 10 mg/kg [4]: 96%
